Some results are limits rather than exact numbers.

Assay [1] addresses T1, Metabotropic glutamate receptor 5 (Rattus norvegicus, UniProt P31424). Kind of assay: Negative allosteric modulator activity at mGluR5 receptor expressed in HEK293A cells assessed as inhibition of glutamate-induced calcium flux preincubated for 140 secs before glutamate challenge by calcium fluorescence assay. The assay is classed as functional, cell-based, HEK293-A. (In general: A change in cytosolic calcium serves as a functional read-out for many receptors and channels.)
Target sequence in this assay (P31424 whole entry, looked up): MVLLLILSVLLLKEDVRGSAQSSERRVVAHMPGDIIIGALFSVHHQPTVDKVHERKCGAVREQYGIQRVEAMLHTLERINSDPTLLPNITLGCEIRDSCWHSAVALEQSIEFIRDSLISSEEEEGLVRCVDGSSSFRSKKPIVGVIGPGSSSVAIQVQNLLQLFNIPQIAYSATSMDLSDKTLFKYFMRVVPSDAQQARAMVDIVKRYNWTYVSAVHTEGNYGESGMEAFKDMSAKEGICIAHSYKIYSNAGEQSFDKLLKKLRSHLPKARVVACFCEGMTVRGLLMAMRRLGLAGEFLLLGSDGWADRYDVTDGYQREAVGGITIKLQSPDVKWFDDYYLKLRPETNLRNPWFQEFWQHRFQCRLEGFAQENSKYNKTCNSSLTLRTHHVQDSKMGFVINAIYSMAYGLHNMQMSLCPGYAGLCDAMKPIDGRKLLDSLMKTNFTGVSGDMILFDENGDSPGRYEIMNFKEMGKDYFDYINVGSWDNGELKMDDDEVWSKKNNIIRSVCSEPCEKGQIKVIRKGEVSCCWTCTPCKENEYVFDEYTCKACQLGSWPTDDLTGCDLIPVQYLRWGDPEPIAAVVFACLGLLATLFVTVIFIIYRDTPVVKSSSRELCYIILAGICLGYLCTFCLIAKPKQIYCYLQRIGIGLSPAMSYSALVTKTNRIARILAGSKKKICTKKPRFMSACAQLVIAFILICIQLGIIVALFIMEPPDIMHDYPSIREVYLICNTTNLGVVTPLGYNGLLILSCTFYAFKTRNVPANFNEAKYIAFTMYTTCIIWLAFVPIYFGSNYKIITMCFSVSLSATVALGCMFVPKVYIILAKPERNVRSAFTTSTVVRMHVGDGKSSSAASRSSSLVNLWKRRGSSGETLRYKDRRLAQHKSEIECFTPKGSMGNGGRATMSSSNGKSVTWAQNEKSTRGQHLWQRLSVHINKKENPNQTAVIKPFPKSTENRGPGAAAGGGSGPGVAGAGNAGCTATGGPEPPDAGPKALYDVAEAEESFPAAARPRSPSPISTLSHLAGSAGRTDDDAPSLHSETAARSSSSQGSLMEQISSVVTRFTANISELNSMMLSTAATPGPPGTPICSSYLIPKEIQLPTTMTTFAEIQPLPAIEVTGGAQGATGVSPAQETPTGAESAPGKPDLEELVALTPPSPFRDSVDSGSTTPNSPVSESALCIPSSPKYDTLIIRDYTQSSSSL

Assay [2] concerns the target Metabotropic glutamate receptor 5 (Homo sapiens) (UniProt P41594). Description: Negative allosteric modulator activity at mGluR5 receptor expressed in HEK293A cells assessed as maximum glutamate-induced response preincubated for 140 secs before glutamate challenge by calcium fluorescence assay. The assay is classed as functional, cell-based. The settings on record: HEK293-A.

Assay [3] shares this target. Kind of assay: Positive allosteric modulator activity at mGluR5 receptor expressed in HEK293A cells assessed as maximum glutamate-induced response preincubated for 140 secs before glutamate challenge by calcium fluorescence assay. The assay is classed as functional, cell-based. The note with it: HEK293-A.
Assay [4] addresses T1, Metabotropic glutamate receptor 5. Description: Positive allosteric modulator activity at mGluR5 receptor expressed in HEK293A cells assessed as effect on glutamate-induced calcium flux preincubated for 140 secs before glutamate challenge by calcium fluorescence assay. The assay is classed as functional, cell-based, HEK293-A.
Target sequence in this assay (P31424 whole entry, looked up): as above
Assay [5] has the same target. Description: Ago-Positive allosteric modulator activity at mGluR5 receptor expressed in HEK293A cells assessed as effect on glutamate-induced calcium flux preincubated for 140 secs before glutamate challenge by calcium fluorescence assay. It counts as functional, cell-based, HEK293-A.
Target sequence in this assay (P31424 whole entry, looked up): as above
Assay [6] has as its target Metabotropic glutamate receptor 5 (Homo sapiens) (UniProt P41594). Kind of assay: Ago-Positive allosteric modulator activity at mGluR5 receptor expressed in HEK293A cells assessed as maximum glutamate-induced response preincubated for 140 secs before glutamate challenge by calcium fluorescence assay. The assay is classed as functional, cell-based. The settings on record: HEK293-A.

Assay [7] has as its target T1, Metabotropic glutamate receptor 5. Kind of assay: Positive allosteric modulator activity at rat mGlu5 receptor expressed in HEK293A cells assessed as increase in glutamate induced response. The assay is classed as cell-based, HEK293-A.
Target sequence in this assay (P31424 whole entry): as the sequence (P31424 whole entry, looked up) above
The target in assay [8] is Metabotropic glutamate receptor 5 (Rattus norvegicus) (UniProt P31424). Description: Positive allosteric modulator activity at rat mGlu5 receptor expressed in HEK293A cells assessed as fold shift in glutamate induced response relative to control. The settings on record: HEK293-A. It counts as cell-based.
The target in assay [9] is T1, Metabotropic glutamate receptor 5. Kind of assay: Negative allosteric modulator activity at rat mGluR5 receptor expressed in HEK293A cells.
Target sequence in this assay (P31424 whole entry): as the sequence (P31424 whole entry, looked up) above
For assay [10], the target named is Metabotropic glutamate receptor 5 (Homo sapiens) (UniProt P41594). Kind of assay: Partial antagonist activity at mGluR5 receptor expressed in HEK293A cells assessed as maximum glutamate-induced response preincubated for 140 secs before glutamate challenge by calcium fluorescence assay. It counts as functional, cell-based. Also on record: scale not given: the % may be the effect or the level left. The note with it: HEK293-A.

The target in assay [11] is T1, Metabotropic glutamate receptor 5. Kind of assay: Partial antagonist activity at mGluR5 receptor expressed in HEK293A cells assessed as inhibition of glutamate-induced calcium flux preincubated for 140 secs before glutamate challenge by calcium fluorescence assay. It counts as functional, cell-based, HEK293-A.
Target sequence in this assay (P31424 whole entry, looked up): as above

Sequence of Metabotropic glutamate receptor 5 (Rattus norvegicus) (P31424 21-1203 limits assumed): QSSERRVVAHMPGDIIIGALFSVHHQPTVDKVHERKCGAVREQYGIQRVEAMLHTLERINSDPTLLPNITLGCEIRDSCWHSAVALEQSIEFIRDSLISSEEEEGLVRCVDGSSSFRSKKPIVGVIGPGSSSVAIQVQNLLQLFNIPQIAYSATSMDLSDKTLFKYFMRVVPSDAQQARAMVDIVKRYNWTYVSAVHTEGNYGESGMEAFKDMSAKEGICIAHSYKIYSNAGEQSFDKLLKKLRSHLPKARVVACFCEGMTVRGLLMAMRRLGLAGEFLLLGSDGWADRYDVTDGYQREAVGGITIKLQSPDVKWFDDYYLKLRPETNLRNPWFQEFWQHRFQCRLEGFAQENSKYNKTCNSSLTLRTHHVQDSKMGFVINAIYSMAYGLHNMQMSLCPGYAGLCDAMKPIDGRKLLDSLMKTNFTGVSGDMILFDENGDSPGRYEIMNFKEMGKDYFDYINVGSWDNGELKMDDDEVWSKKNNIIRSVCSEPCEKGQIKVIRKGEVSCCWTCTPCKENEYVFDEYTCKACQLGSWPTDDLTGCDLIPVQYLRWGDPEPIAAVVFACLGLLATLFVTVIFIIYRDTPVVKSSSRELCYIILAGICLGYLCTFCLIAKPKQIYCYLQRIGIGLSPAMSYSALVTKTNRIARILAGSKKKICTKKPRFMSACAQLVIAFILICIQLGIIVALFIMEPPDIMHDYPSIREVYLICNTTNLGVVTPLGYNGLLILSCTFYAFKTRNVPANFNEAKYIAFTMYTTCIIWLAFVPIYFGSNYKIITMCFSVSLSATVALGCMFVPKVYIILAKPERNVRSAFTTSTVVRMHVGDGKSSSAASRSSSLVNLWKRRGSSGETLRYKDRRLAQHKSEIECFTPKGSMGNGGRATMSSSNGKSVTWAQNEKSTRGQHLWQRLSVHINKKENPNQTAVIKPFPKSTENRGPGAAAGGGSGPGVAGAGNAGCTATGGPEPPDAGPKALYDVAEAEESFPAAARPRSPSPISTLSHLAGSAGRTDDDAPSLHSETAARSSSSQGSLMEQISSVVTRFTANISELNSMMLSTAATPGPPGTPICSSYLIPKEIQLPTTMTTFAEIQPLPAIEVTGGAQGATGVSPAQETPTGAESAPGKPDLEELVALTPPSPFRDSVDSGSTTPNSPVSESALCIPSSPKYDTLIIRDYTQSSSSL
Sequence of Metabotropic glutamate receptor 5 (Homo sapiens) (P41594 21-1212 limits assumed): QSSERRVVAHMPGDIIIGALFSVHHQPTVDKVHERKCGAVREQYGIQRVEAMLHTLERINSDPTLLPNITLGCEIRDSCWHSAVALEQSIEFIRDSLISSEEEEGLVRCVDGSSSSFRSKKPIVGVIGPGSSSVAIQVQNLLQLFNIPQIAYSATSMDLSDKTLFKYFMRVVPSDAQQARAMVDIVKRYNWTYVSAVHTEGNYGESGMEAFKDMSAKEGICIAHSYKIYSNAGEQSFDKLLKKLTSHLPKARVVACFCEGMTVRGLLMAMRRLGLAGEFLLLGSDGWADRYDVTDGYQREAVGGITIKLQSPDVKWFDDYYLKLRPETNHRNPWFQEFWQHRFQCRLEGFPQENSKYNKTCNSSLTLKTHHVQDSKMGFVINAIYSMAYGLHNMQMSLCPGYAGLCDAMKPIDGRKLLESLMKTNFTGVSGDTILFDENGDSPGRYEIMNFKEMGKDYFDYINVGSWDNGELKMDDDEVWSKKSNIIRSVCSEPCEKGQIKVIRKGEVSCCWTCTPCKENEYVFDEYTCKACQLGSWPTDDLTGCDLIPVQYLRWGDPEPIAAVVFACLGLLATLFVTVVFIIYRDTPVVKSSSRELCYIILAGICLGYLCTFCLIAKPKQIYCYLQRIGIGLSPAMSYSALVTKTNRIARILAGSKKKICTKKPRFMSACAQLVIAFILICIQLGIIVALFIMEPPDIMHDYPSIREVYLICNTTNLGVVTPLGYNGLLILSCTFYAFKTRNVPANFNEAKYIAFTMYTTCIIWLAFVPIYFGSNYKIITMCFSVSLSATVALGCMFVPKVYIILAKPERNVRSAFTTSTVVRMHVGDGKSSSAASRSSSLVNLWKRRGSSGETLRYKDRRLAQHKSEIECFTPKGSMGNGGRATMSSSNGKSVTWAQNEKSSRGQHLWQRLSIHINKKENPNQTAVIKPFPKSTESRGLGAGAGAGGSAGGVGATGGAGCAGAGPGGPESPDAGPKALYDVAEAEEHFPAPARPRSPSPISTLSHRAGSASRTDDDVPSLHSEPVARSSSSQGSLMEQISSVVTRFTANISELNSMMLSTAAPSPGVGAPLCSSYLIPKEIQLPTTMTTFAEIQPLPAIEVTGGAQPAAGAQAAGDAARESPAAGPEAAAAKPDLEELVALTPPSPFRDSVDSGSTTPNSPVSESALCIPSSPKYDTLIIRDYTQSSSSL

As for `Cc1cccc(-c2noc([C@H]3CCCCN3C(=O)C3CCC3)n2)c1`, in assay [1], the IC50 (commonly the concentration that gives 50% inhibition) was 300 nM. With `O=C(C1CCC1)N1CCC[C@@H](c2nc(-c3ccccn3)no2)C1`, the IC50 in assay [1] was determined as 9900 nM. Further, the Activity in assay [2] amounted to 19%. As to `Cc1cccc(-c2noc([C@H]3CCCCN3C(=O)c3ccc(F)cc3)n2)c1`, the half-maximal inhibitory concentration (IC50) in assay [1] came to 10000 nM. For the same compound, the Activity in assay [2] worked out at 47%. Regarding `O=C(C1CCC1)N1CCCC1c1nc(-c2cccc(F)c2)no1` (racemic), the Activity in assay [3] was 64%. As for `Cc1cccc(-c2noc([C@H]3CCCCN3C(=O)C3CCCCC3)n2)c1`, the IC50 in assay [1] came to 2500 nM. The Activity in assay [2] is 9.2%. On to `O=C(C1CCCCC1)N1CCCC[C@@H]1c1nc(-c2cccc(F)c2)no1`, for which, in assay [4], the concentration giving a half-maximal response (EC50) (as a rule, the concentration at which the effect is half-maximal) stood at 3500 nM. The Activity in assay [3] turned out to be 58%.

Take `O=C(C1CCC1)N1CCCC1c1nc(-c2cccc(Cl)c2)no1` (racemic): the IC50 in assay [1] stood at 10000 nM. The Activity in assay [2] turned out to be 25%.

On to `O=C(C1CCC1)N1CCC[C@H]1c1nc(-c2cccc(F)c2)no1`, for which the EC50 in assay [4] came out at 7000 nM. Besides, the Activity in [3] worked out at 57.3%. With `O=C(C1CCC1)N1CCC[C@H](c2nc(-c3cccc(Cl)c3)no2)C1`, in assay [1], the IC50 came to 200 nM. In assay [2], the Activity was determined as 2.4%. With `O=C(C1CCCC1)N1CCCC[C@@H]1c1nc(-c2cccc(F)c2)no1`, the EC50 in assay [5] is 310 nM. The Activity in assay [6] came out at 80%.

Turning to `O=C(c1ccc(F)cc1F)N1CCCC1c1nc(-c2cccc(F)c2)no1` (centres undefined), in assay [4], the EC50 is 10000 nM. Moreover, the Activity in [3] turned out to be 61%. Regarding `O=C(c1ccc(F)c(F)c1)N1CCCC1c1nc(-c2cccc(F)c2)no1` (centres undefined), the EC50 in [4] worked out at 3700 nM. Besides, the Activity in assay [3] is 62%. Consider `O=C(C1CCC1)N1CCCC[C@@H]1c1nc(-c2cccc(F)c2)no1` (stereo in doubt; (R)-20c), for which, in assay [4], the EC50 stood at 600 nM. For `O=C(C1CCC1)N1CCC[C@H](c2nc(-c3cccc(F)c3)no2)C1`, the IC50 in assay [1] worked out at 2400 nM. Further, the Activity in assay [2] is 31%. `Cc1cccc(-c2noc([C@H]3CCCCN3C(=O)c3cccs3)n2)c1`: in assay [1], the 50% inhibitory concentration (IC50) turned out to be 730 nM. In [2], the Activity came to 0.9%.

Consider `Cc1cccc(-c2noc([C@@H]3CCCCN3C(=O)C3CCC3)n2)c1`, for which the IC50 in assay [1] is 500 nM. As to `Cc1cccc(-c2noc([C@H]3CCCCN3C(=O)c3ccc(F)c(F)c3)n2)c1`, the IC50 in [1] stood at 10000 nM. Also, in assay [2], the Activity turned out to be 46%. For the compound `O=C(c1ccc(F)cc1F)N1CCC[C@H](c2nc(-c3ccccn3)no2)C1`, the EC50 in [7] was found to be 240 nM. Moreover, in assay [8], the fold change (FC) is 14.

Turning to `O=C(C1CCC1)N1CCC[C@@H](c2nc(-c3cccc(Cl)c3)no2)C1`, in assay [1], the IC50 was found to be 3100 nM. In addition, the Activity in assay [2] turned out to be 18%. `O=C(C1CC1)N1CCCC[C@@H]1c1nc(-c2cccc(F)c2)no1`: in assay [5], the EC50 came to 80 nM. For the same compound, the Activity in assay [6] is 70%. On to `O=C(c1cccs1)N1CCCC1c1nc(-c2cccc(F)c2)no1` (centres undefined), for which the EC50 in [4] came out at 430 nM. The Activity in [3] stood at 60%. For `Cc1ccc(C#Cc2cncnc2)cc1`, the fold change (FC) in assay [8] was 4.2. `COc1cccc(-c2noc([C@H]3CCCCN3C(=O)C3CCC3)n2)c1`: in [1], the IC50 worked out at 300 nM. With `O=C(C1CCC1)N1CCC[C@H](c2nc(-c3cccs3)no2)C1`, in assay [1], the IC50 was found to be 9300 nM. In assay [2], the Activity came out at 67%. Regarding `O=C(C1CCC1)N1CCCC[C@H]1c1nc(-c2cccs2)no1`, in assay [1], the IC50 is 2600 nM. For `O=C(C1CCC1)N1CCCC1c1nc(-c2cccc(F)c2)no1` (stereo in doubt; 24b) [listing 1 of 2 here], the Activity in [3] is 63%. Regarding `O=C(C1CCC1)N1CCCC[C@@H]1c1nc(-c2cccc(F)c2)no1` (stereo in doubt; 22b) [listing 1 of 2 here], in [3], the Activity is 38%. Regarding `O=C(c1ccc(F)cc1)N1CCC[C@H](c2nc(-c3cccs3)no2)C1`, the EC50 in assay [7] turned out to be 170 nM. For the same compound, the fold change (FC) in assay [8] was 20. `O=C(C1CCC1)N1CCC[C@@H](c2nc(-c3cccc(F)c3)no2)C1`: in assay [1], the IC50 is above 10000 nM. Further, the Activity in assay [2] turned out to be 60%. With `O=C(C1CCC1)N1CCC[C@@H]1c1nc(-c2cccc(F)c2)no1`, the EC50 in assay [4] was 530 nM. In [3], the Activity came to 68.4%.

In the case of `Cc1cccc(-c2noc([C@H]3CCCN(C(=O)C4CCC4)C3)n2)c1`, the IC50 in assay [1] worked out at 700 nM. Also, the Activity in assay [2] came out at 2.5%. On to `O=C(C1CCC1)N1CCCC[C@@H]1c1nc(-c2cccs2)no1`, for which the IC50 in assay [1] was determined as 3500 nM. In the case of `O=C(c1ccc(F)cc1)N1CCCC1c1nc(-c2cccc(F)c2)no1` (centres undefined), the EC50 in [4] was 3600 nM. Besides, the Activity in [3] worked out at 59%. For `Cc1cccc(-c2noc([C@H]3CCCCN3C(=O)c3cccc(F)c3)n2)c1`, the IC50 in assay [1] is 4700 nM. In addition, the Activity in assay [2] stood at 16%. Consider `O=C(C1CCC1)N1CCC[C@H](c2nc(-c3ccccn3)no2)C1`, for which the IC50 in [1] was above 10000 nM; in assay [9], 8700 nM. Also, the Activity in assay [2] came out at 33%. In the case of `Cc1cccc(-c2noc([C@H]3CCCCN3C(=O)C3CCCC3)n2)c1`, the Activity in assay [10] is 24%. Also, in assay [11], the 50% inhibitory concentration (IC50) is 600 nM.

Turning to `O=C(C1CCC1)N1CCCC1c1nc(-c2cccc(F)c2)no1` (stereo in doubt; 24b) [listing 2 of 2 here], the EC50 in assay [4] amounted to 1500 nM. Consider `COc1cccc(-c2noc([C@@H]3CCCCN3C(=O)C3CCC3)n2)c1`, for which, in assay [1], the IC50 is 80 nM. Take `O=C(c1ccc(F)c(F)c1)N1CCCC[C@@H]1c1nc(-c2cccc(F)c2)no1`: the EC50 in assay [4] stood at 1400 nM. The Activity in assay [3] was 93%. For `O=C(c1cccc(F)c1)N1CCCC1c1nc(-c2cccc(F)c2)no1` (centres undefined), the half-maximal effective concentration (EC50) in assay [4] was 2600 nM. Also, in [3], the Activity turned out to be 47%.

As to `Cc1cccc(-c2noc([C@@H]3CCCN(C(=O)C4CCC4)C3)n2)c1`, the IC50 in assay [1] amounted to 4700 nM. Moreover, the Activity in assay [2] is 14%. In the case of `O=C(C1CCCC1)N1CCCC1c1nc(-c2cccc(F)c2)no1` (centres undefined), the EC50 in assay [4] was found to be 1000 nM. Moreover, the Activity in assay [3] is 75%.

Turning to `O=C(C1CCC1)N1CCCC[C@@H]1c1nc(-c2cccc(F)c2)no1` (stereo in doubt; 22b) [listing 2 of 2 here], the EC50 in assay [4] is 650 nM. Take `O=C(c1cccs1)N1CCCC[C@@H]1c1nc(-c2cccc(F)c2)no1`: in assay [3], the Activity is 34%. Turning to `Cc1cccc(-c2noc(C3CCCN3C(=O)C3CCC3)n2)c1` (racemic), the IC50 in [1] was found to be 2400 nM. Also, in assay [2], the Activity was 34%.

Take `Cc1cccc(-c2noc([C@H]3CCCCN3C(=O)C3CC3)n2)c1`: the Activity in [10] came out at 16%. The IC50 in assay [11] was determined as 280 nM. As for `COc1cccc(-c2noc([C@@H]3CCCN(C(=O)C4CCC4)C3)n2)c1`, in assay [1], the IC50 is above 10000 nM. Besides, the Activity in assay [2] was found to be 54%. For `COc1cccc(-c2noc([C@H]3CCCN(C(=O)C4CCC4)C3)n2)c1`, the IC50 in [1] is 1800 nM. For the same compound, in [2], the Activity was 2.1%.

Consider `O=C(c1ccc(F)cc1F)N1CCCC[C@@H]1c1nc(-c2cccc(F)c2)no1`, for which the EC50 in [4] stood at 2900 nM. Further, the Activity in assay [3] was found to be 95%. Turning to `O=C(c1cccc(F)c1)N1CCCC[C@@H]1c1nc(-c2cccc(F)c2)no1`, the 50% effective concentration (EC50) in assay [4] is 460 nM. Further, the Activity in assay [3] stood at 59%. Regarding `O=C(c1ccc(F)cc1)N1CCCC[C@@H]1c1nc(-c2cccc(F)c2)no1`, the Activity in assay [3] was 91%. As for `O=C(C1CCC1)N1CCCC[C@H]1c1nc(-c2ccccn2)no1`, in assay [1], the IC50 is 10000 nM.

Consider `O=C(C1CCC1)N1CCCC1c1nc(-c2ccc(F)cc2)no1` (racemic), for which the EC50 in assay [4] is 2700 nM. In addition, the Activity in assay [3] is 72%. As to `O=C(C1CCC1)N1CCCC[C@H]1c1nc(-c2cccc(F)c2)no1`, in assay [4], the half-maximal effective concentration (EC50) stood at 700 nM. Regarding `O=C(C1CC1)N1CCCC1c1nc(-c2cccc(F)c2)no1` (centres undefined), the concentration for a half-maximal effect (EC50) in assay [4] came out at 2900 nM. For the same compound, the Activity in assay [3] worked out at 68%.
